Literature values as cited in patent publication US20030092774A1, “Methods for treating neoplastic, angiogenic, vascular, fibroblastic, and/or immunosuppressive iregularities of the eye and/or joint via administration of combretastatin based medicaments, and iontophoretic devices for delivering combretastatin based medicaments” (priority 2001, published 2003).

## COc1ccc(/C=C\c2cc(OC)c(OC)c(OC)c2)cc1O [combretastatin-A4, (cis)-1-(3′,4′,5′,-trimethoxyphenyl)-2-(3 ″-hydroxy-4″-methoxyphenyl)ethene]
  solubility in aqueous solution: practically insoluble
